Target: T1, DgcZ (Escherichia coli, UniProt P31129)
T1 construct: CZB domain (DgcZ-CZB, strain K12)
Assay: cysteine sulfenic acid formation on purified domain, dimedone trapping and immunoblot
Format: binding

T1 sequence (P31129 2-127): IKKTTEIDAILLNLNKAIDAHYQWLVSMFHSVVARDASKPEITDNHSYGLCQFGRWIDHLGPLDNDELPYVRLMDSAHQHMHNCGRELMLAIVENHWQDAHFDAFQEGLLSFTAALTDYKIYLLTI

Compound: OCl [HOCl]
- cysteine sulfenic acid formation on purified domain, dimedone trapping and immun: We found them to be similarly reactive toward HOCl as TlpD

From paper PMC6715182, “Helicobacter pylori senses bleach (HOCl) as a chemoattractant using a cytosolic chemoreceptor” (PLoS Biology, 2019)
